These results are taken from ChEMBL document CHEMBL4000181, “Synthesis and biological screening of novel 2-morpholinoquinoline nucleus clubbed with 1,2,4-oxadiazole motifs” (Eur J Med Chem, 2017).

Values after ≈ are worked out from the molar mass of the structure shown.

The subject of one series is Clostridium tetani. Briefly: Antibacterial activity against Clostridium tetani MTCC 449 after 24 to 48 hrs by broth microdilution method. In kind it is functional.
The subject of the next series is Bacillus subtilis. Description: Antibacterial activity against Bacillus subtilis MTCC 441 after 24 to 48 hrs by broth microdilution method. In kind it is functional.
The next series has as its system Salmonella typhi. Briefly: Antibacterial activity against Salmonella typhi MTCC 98 after 24 to 48 hrs by broth microdilution method. In kind it is functional, Salmonella enterica subsp. enterica serovar Typhi. The conditions noted are these: Salmonella enterica.
Series [1] has as its system Schizosaccharomyces pombe. Briefly: Toxicity in Schizosaccharomyces pombe Var. Paul Linder 3360 assessed as dead cells at 2.5 to 12.5 ug/ml after 17 hrs by trypan blue dye-based microscopic method.
Another series deals with Aspergillus fumigatus. Briefly: Antifungal activity against Aspergillus fumigatus MTCC 3008 after 24 to 48 hrs by broth microdilution method. In kind it is functional.
In another series the test system is Candida albicans. Description: Antifungal activity against Candida albicans MTCC 227 after 24 to 48 hrs by broth microdilution method. The series is classed as functional.
The next series deals with Streptococcus pneumoniae. Description: Antibacterial activity against Streptococcus pneumoniae MTCC 1936 after 24 to 48 hrs by broth microdilution method. The series is classed as functional.
The subject of the next series is Vibrio cholerae. Description: Antibacterial activity against Vibrio cholerae MTCC 3906 after 24 to 48 hrs by broth microdilution method. In kind it is functional.
Another series concerns Escherichia coli. Briefly: Antibacterial activity against Escherichia coli MTCC 443 after 24 to 48 hrs by broth microdilution method. The series is classed as functional.

Turning to `Cc1ccc2nc(N3CCOCC3)c(-c3noc(-c4ccc([N+](=O)[O-])cc4)n3)cc2c1`, the MIC amounted to 149 µM (≈ 62.2 µg/mL) against Clostridium tetani; 239 µM (≈ 99.8 µg/mL) in the series with Bacillus subtilis; 599 µM (≈ 250 µg/mL) against Salmonella typhi; 1200 µM (≈ 500 µg/mL) against Aspergillus fumigatus; 1140 µM (≈ 476 µg/mL) against Candida albicans; 149 µM (≈ 62.2 µg/mL) against Streptococcus pneumoniae. For the same molecule, the minimal inhibitory concentration (MIC) against Vibrio cholerae and in the series on Escherichia coli was 239 µM (≈ 99.8 µg/mL) throughout. Moreover, in series [1], the Activity entry is listed as “Toxic”.
On to `CCn1cc(C(=O)O)c(=O)c2cc(F)c(N3CCNCC3)cc21` [NORFLOXACIN], for which the minimal inhibitory concentration (MIC) in the series on Clostridium tetani, with Bacillus subtilis, against Salmonella typhi, in the series on Streptococcus pneumoniae, in the series on Vibrio cholerae and against Escherichia coli was 154 µM (≈ 49.2 µg/mL) in each case.
`O=C(O)c1cn(C2CC2)c2cc(N3CCNCC3)c(F)cc2c1=O` [CIPROFLOXACIN]: the minimum inhibitory concentration (MIC) was 310 µM (≈ 103 µg/mL) in the series on Bacillus subtilis; 31 µM (≈ 10.3 µg/mL) with Salmonella typhi; 31 µM (≈ 10.3 µg/mL) against Streptococcus pneumoniae; 31 µM (≈ 10.3 µg/mL) in the series with Vibrio cholerae; 31 µM (≈ 10.3 µg/mL) against Escherichia coli.
As to `CC1(C)S[C@@H]2[C@H](NC(=O)[C@H](N)c3ccccc3)C(=O)N2[C@H]1C(=O)O` [AMPICILLIN], the minimal inhibitory concentration (MIC) came to 715 µM (≈ 250 µg/mL) in the series with Clostridium tetani; 715 µM (≈ 250 µg/mL) with Bacillus subtilis; 286 µM (≈ 99.9 µg/mL) against Salmonella typhi; 286 µM (≈ 99.9 µg/mL) against Streptococcus pneumoniae; 286 µM (≈ 99.9 µg/mL) in the series with Vibrio cholerae; 286 µM (≈ 99.9 µg/mL) with Escherichia coli.
In the case of `COC1=CC(=O)C[C@@H](C)[C@]12Oc1c(Cl)c(OC)cc(OC)c1C2=O` [GRISEOFULVIN], the MIC in the series with Aspergillus fumigatus is 283 µM (≈ 99.8 µg/mL); in the series on Candida albicans, 1150 µM (≈ 405 µg/mL).
In the case of `Clc1ccc(-c2nc(-c3cc4ccccc4nc3N3CCOCC3)no2)cc1`, the MIC against Clostridium tetani is 159 µM (≈ 62.5 µg/mL); against Bacillus subtilis it was 255 µM (≈ 100 µg/mL); in the series on Salmonella typhi it was 255 µM (≈ 100 µg/mL); in the series on Aspergillus fumigatus, 255 µM (≈ 100 µg/mL); against Candida albicans it was 637 µM (≈ 250 µg/mL); in the series on Streptococcus pneumoniae, 159 µM (≈ 62.5 µg/mL). The minimum inhibitory concentration (MIC) came to 255 µM (≈ 100 µg/mL) with Vibrio cholerae and 510 µM (≈ 200 µg/mL) in the series with Escherichia coli. In addition, in series [1], the Activity entry was “Toxic”.
In the case of `COc1ccc(-c2nc(-c3cc4cc(C)ccc4nc3N3CCOCC3)no2)cc1`, the MIC with Clostridium tetani is 621 µM (≈ 250 µg/mL); in the series on Bacillus subtilis, 621 µM (≈ 250 µg/mL); against Salmonella typhi, 248 µM (≈ 99.8 µg/mL); in the series on Aspergillus fumigatus, 2490 µM (≈ 1000 µg/mL); against Candida albicans, 1240 µM (≈ 500 µg/mL); in the series with Streptococcus pneumoniae it was 310 µM (≈ 125 µg/mL). For the same molecule, the MIC in the series on Vibrio cholerae and in the series on Escherichia coli was 497 µM (≈ 200 µg/mL) in each case.
In the case of `Brc1ccc(-c2nc(-c3cc4ccccc4nc3N3CCOCC3)no2)cc1`, the minimum inhibitory concentration (MIC) against Clostridium tetani stood at 572 µM (≈ 250 µg/mL); against Bacillus subtilis, 457 µM (≈ 200 µg/mL); against Salmonella typhi, 228 µM (≈ 99.7 µg/mL); against Aspergillus fumigatus it was 2290 µM (≈ 1000 µg/mL); against Candida albicans, 1120 µM (≈ 488 µg/mL); against Streptococcus pneumoniae, 286 µM (≈ 125 µg/mL). Moreover, the minimal inhibitory concentration (MIC) was 228 µM (≈ 99.7 µg/mL) against Vibrio cholerae and 572 µM (≈ 250 µg/mL) against Escherichia coli. Further, in series [1], the Activity entry is “Non-Toxic”.
As to `Cc1ccc2nc(N3CCOCC3)c(-c3noc(-c4ccc(Br)cc4)n3)cc2c1`, the minimal inhibitory concentration (MIC) worked out at 221 µM (≈ 99.7 µg/mL) with Clostridium tetani; 1110 µM (≈ 500 µg/mL) against Bacillus subtilis; 443 µM (≈ 200 µg/mL) against Salmonella typhi; 1110 µM (≈ 500 µg/mL) in the series on Aspergillus fumigatus; 2340 µM (≈ 1060 µg/mL) in the series on Candida albicans; 221 µM (≈ 99.7 µg/mL) against Streptococcus pneumoniae. For the same molecule, the minimum inhibitory concentration (MIC) against Vibrio cholerae worked out at 554 µM (≈ 250 µg/mL); in the series with Escherichia coli, 138 µM (≈ 62.3 µg/mL).
As to `FC(F)(F)c1cccc(-c2nc(-c3cc4ccccc4nc3N3CCOCC3)no2)c1`, the minimum inhibitory concentration (MIC) with Clostridium tetani was found to be 469 µM (≈ 200 µg/mL); with Bacillus subtilis, 234 µM (≈ 99.8 µg/mL); in the series with Salmonella typhi, 146 µM (≈ 62.3 µg/mL); with Aspergillus fumigatus, 234 µM (≈ 99.8 µg/mL); against Candida albicans it was 1130 µM (≈ 482 µg/mL); in the series on Streptococcus pneumoniae, 234 µM (≈ 99.8 µg/mL). Further, the MIC with Vibrio cholerae and in the series on Escherichia coli was 234 µM (≈ 99.8 µg/mL) throughout.
Turning to `FC(F)(F)c1ccc(-c2nc(-c3cc4ccccc4nc3N3CCOCC3)no2)cc1`, the minimal inhibitory concentration (MIC) in the series with Clostridium tetani was 146 µM (≈ 62.3 µg/mL); in the series on Bacillus subtilis, 146 µM (≈ 62.3 µg/mL); in the series with Salmonella typhi, 146 µM (≈ 62.3 µg/mL); against Aspergillus fumigatus, 146 µM (≈ 62.3 µg/mL); against Candida albicans, 2350 µM (≈ 1000 µg/mL); in the series on Streptococcus pneumoniae, 146 µM (≈ 62.3 µg/mL). The MIC in the series with Vibrio cholerae and against Escherichia coli was 586 µM (≈ 250 µg/mL) throughout.
On to NYSTATIN, for which the MIC against Aspergillus fumigatus and with Candida albicans was 107 µM each time.
`c1ccc(-c2nc(-c3cc4ccccc4nc3N3CCOCC3)no2)cc1`: the minimum inhibitory concentration (MIC) was 1400 µM (≈ 500 µg/mL) with Clostridium tetani; 1400 µM (≈ 500 µg/mL) in the series on Bacillus subtilis; 1400 µM (≈ 500 µg/mL) in the series with Salmonella typhi; 1400 µM (≈ 500 µg/mL) with Aspergillus fumigatus; 2790 µM (≈ 1000 µg/mL) against Candida albicans; 698 µM (≈ 250 µg/mL) against Streptococcus pneumoniae. The values for the MIC against Vibrio cholerae and against Escherichia coli were 1400 µM (≈ 500 µg/mL) and 279 µM (≈ 100 µg/mL), respectively.
Regarding `Cc1ccc2nc(N3CCOCC3)c(-c3noc(-c4cccc(C(F)(F)F)c4)n3)cc2c1`, the minimum inhibitory concentration (MIC) against Clostridium tetani was 1140 µM (≈ 500 µg/mL); in the series on Bacillus subtilis it was 568 µM (≈ 250 µg/mL); in the series with Salmonella typhi, 568 µM (≈ 250 µg/mL); in the series on Aspergillus fumigatus, 1140 µM (≈ 500 µg/mL); in the series on Candida albicans, 2270 µM (≈ 1000 µg/mL); against Streptococcus pneumoniae, 227 µM (≈ 100 µg/mL). Besides, the results for the MIC against Vibrio cholerae and in the series with Escherichia coli were 568 µM (≈ 250 µg/mL) and 454 µM (≈ 200 µg/mL), respectively. Further, in [1], the Activity result is reported as “Non-Toxic”.
With `O=[N+]([O-])c1ccc(-c2nc(-c3cc4ccccc4nc3N3CCOCC3)no2)cc1`, the MIC amounted to 155 µM (≈ 62.5 µg/mL) in the series on Clostridium tetani; 155 µM (≈ 62.5 µg/mL) with Bacillus subtilis; 155 µM (≈ 62.5 µg/mL) against Salmonella typhi; 248 µM (≈ 100 µg/mL) against Aspergillus fumigatus; 1130 µM (≈ 456 µg/mL) in the series on Candida albicans; 248 µM (≈ 100 µg/mL) with Streptococcus pneumoniae. Besides, the minimum inhibitory concentration (MIC) in the series on Vibrio cholerae and against Escherichia coli was 620 µM (≈ 250 µg/mL) in each case. The Activity entry in series [1] is recorded as “Toxic”.
On to `Cc1ccc2nc(N3CCOCC3)c(-c3noc(-c4ccc(C(F)(F)F)cc4)n3)cc2c1`, for which the MIC against Clostridium tetani is 568 µM (≈ 250 µg/mL); in the series with Bacillus subtilis it was 454 µM (≈ 200 µg/mL); with Salmonella typhi, 454 µM (≈ 200 µg/mL); against Aspergillus fumigatus, 1140 µM (≈ 500 µg/mL); against Candida albicans, 568 µM (≈ 250 µg/mL); against Streptococcus pneumoniae, 454 µM (≈ 200 µg/mL). The MIC in the series with Vibrio cholerae and against Escherichia coli was 227 µM (≈ 100 µg/mL) each time. Besides, in series [1], the Activity entry is “Non-Toxic”.
As to `Cc1ccc2nc(N3CCOCC3)c(-c3noc(-c4ccc(Cl)cc4)n3)cc2c1`, the MIC worked out at 200 µM (≈ 81.4 µg/mL) with Clostridium tetani; 153 µM (≈ 62.3 µg/mL) against Bacillus subtilis; 246 µM (≈ 100 µg/mL) against Salmonella typhi; 246 µM (≈ 100 µg/mL) against Aspergillus fumigatus; 246 µM (≈ 100 µg/mL) against Candida albicans; 246 µM (≈ 100 µg/mL) against Streptococcus pneumoniae. The MIC with Vibrio cholerae and in the series with Escherichia coli was 153 µM (≈ 62.3 µg/mL) each time. Moreover, in [1], the Activity entry is recorded as “Toxic”.
`Cc1ccc2nc(N3CCOCC3)c(-c3noc(-c4ccccc4)n3)cc2c1`: the minimum inhibitory concentration (MIC) stood at 268 µM (≈ 99.8 µg/mL) against Clostridium tetani; 1340 µM (≈ 501 µg/mL) with Bacillus subtilis; 1340 µM (≈ 501 µg/mL) against Salmonella typhi; 1340 µM (≈ 501 µg/mL) against Aspergillus fumigatus; 2690 µM (≈ 1000 µg/mL) in the series with Candida albicans; 672 µM (≈ 250 µg/mL) against Streptococcus pneumoniae. The minimal inhibitory concentration (MIC) against Vibrio cholerae worked out at 268 µM (≈ 99.8 µg/mL); against Escherichia coli, 672 µM (≈ 250 µg/mL).
On to `O=C(N[C@H](CO)[C@H](O)c1ccc([N+](=O)[O-])cc1)C(Cl)Cl` [CHLORAMPHENICOL], for which the MIC turned out to be 301 µM (≈ 97.3 µg/mL) against Clostridium tetani; 150 µM (≈ 48.5 µg/mL) against Bacillus subtilis; 75 µM (≈ 24.2 µg/mL) in the series on Salmonella typhi; 150 µM (≈ 48.5 µg/mL) against Streptococcus pneumoniae; 75 µM (≈ 24.2 µg/mL) in the series with Vibrio cholerae; 75 µM (≈ 24.2 µg/mL) in the series with Escherichia coli.
As for `COc1ccc(-c2nc(-c3cc4ccccc4nc3N3CCOCC3)no2)cc1`, the minimal inhibitory concentration (MIC) in the series on Clostridium tetani is 1290 µM (≈ 500 µg/mL); in the series with Bacillus subtilis, 257 µM (≈ 99.8 µg/mL); with Salmonella typhi, 515 µM (≈ 200 µg/mL); against Aspergillus fumigatus it was 2580 µM (≈ 1000 µg/mL); against Candida albicans, 2580 µM (≈ 1000 µg/mL); against Streptococcus pneumoniae, 1290 µM (≈ 500 µg/mL). In addition, the figures for the MIC in the series on Vibrio cholerae and against Escherichia coli were 644 µM (≈ 250 µg/mL) and 257 µM (≈ 99.8 µg/mL), respectively. For the same molecule, the Activity entry in series [1] is “Non-Toxic”.
